Bridge positions count the residues as written; N and C are the ends. Peptide text beside a SMILES is read from it.
Assays:
[1] = Caecum and colon weight and diarrhea observation in the AOM/DSS mouse trial; format: in vivo, wild type mice (BALB/c)
Description: Thirty wild type mice (BALB/c) were maintained in individually ventilated cages (specific pathogen-free conditions) and divided in four age- and gender-matching groups at the age of 4 weeks. The schematic study set up of the mouse trial using AOM/DSS-based CRC mouse model is represented in FIG. 1.
Accordingly, group A received a semi-synthetic control diet (Hoevenaars F P M, van Schothorst E M, Horakova O, Voigt A, Rossmeisl M, Pico C, Caimari A, Kopecky J, Klaus S, Keijer J. BIOCLAIMS standard diet (BIOsd): a reference diet for nutritional physiology. Genes Nutr. 2012; 7:399-404), group B received a semi-synthetic diet with fiber-supplementation (containing about 46,2 g resistant starch type 2 per 1 kg diet), group C received a semi-synthetic control diet with linaclotide supplementation in drinking water (0.069 μg/mL; replaced every second day; dosage of linaclotide was calculated based on a previous study that applied 0.207 μg/day/mouse via oral gavage (Sharman S K, Islam B N, Hou Y, Singh N, Berger F G, Sridhar S, Yoo W, Browning D D. Cyclic-GMP-Elevating Agents Suppress Polyposis in ApcMin Mice by Targeting the Preneoplastic Epithelium. Cancer Prev Res (Phila Pa). 2018; 11:81-92.) and an assumed daily intake of 3 mL H2O per mouse; this mimics a daily intake of about 0.6 mg in a 70 kg healthy human, which is close to amounts used in previous clinical studies (Weinberg D S, Lin J E, Foster N R, Della'Zanna G, Umar A, Seisler D, Kraft W K, Kastenberg D M, Katz L C, Limburg P J, et al. Bioactivity of Oral Linaclotide in Human Colorectum for Cancer Chemoprevention. Cancer Prev Res Phila Pa. 2017; 10:345-54.)), group D received a combination of fiber-supplemented diet (containing about 46,2 g resistant starch type 2 per 1 kg diet), and linaclotide (0.069 μg/mL).
FIGS. 4 a) to d) represent graphs on the effect of butyrate acting as osmotic antagonist of linaclotide or GUCY2C signaling limiting the flow of H2O to the gut lumen. […] Single dots represent single mice; statistical analysis using One-way ANOVA with Kruskal-Wallis post-test, *=p<0.05. **=p<0.01.

[2] = in vivo; cited from earlier work
[3] = system: colonic tumors after AOM/DSS treatment; settings: diet supplemented with tributyrin; Donohoe et al.; cited from earlier work
[4] = cited from earlier work

In the case of `C[C@@H]1NC(=O)[C@@H]2CCCN2C(=O)[C@H](CC(N)=O)NC(=O)[C@@H]2CSSC[C@H](N)C(=O)N[C@H]3CSSC[C@H](NC1=O)C(=O)N[C@@H]([C@@H](C)O)C(=O)NCC(=O)N[C@H](C(=O)N[C@@H](Cc1ccc(O)cc1)C(=O)O)CSSC[C@H](NC(=O)[C@H](Cc1ccc(O)cc1)NC(=O)[C@H](CCC(=O)O)NC3=O)C(=O)N2` [linaclotide, Linaclotide] (H-CCEYCCNPACTGCY-OH; disulfide 1-6, 2-10, 5-13), the “caecum weight (indication of amounts of H2O in the gut lumen)” value ([1]; FIG. 4a) is reported as “higher”, the “colon weight (indication of amounts of H2O in the gut lumen)” value ([1]; FIG. 4b) is reported as “higher” and the side effect diarrhea ([1]; at the administered linaclotide concentration (0.069 μg/mL drinking water)) is reported as “did not observe”. The “people taking the drug who have diarrhea” value [2] was “More than 10%”.

In the case of `CCCC(=O)OCC(COC(=O)CCC)OC(=O)CCC` [Tributyrin, 1,3-di(butanoyloxy)propan-2-yl butanoate], the “tumor levels in the colon after AOM/DSS treatment” value [3] is given as “lowest tumor levels” and the solubility in water [4] is given as “only poorly soluble”.

From US12599648B2, “Pharmaceutical composition comprising a combination of a guanylate cyclase C (GUCY2C) agonist and a short-chain fatty acid or prodrug thereof” (priority 2020, dated 2026)
